Read-outs that look alike come from different tables or passages of the source.
Tests used:
[1] = tested on: methicillin-sensitive S. aureus ATCC 29213 (MSSA); test: microbe, parasite or virus in culture; conditions: for Max SI (CC50/IC50): HepG2 CC50 / MSSA IC50; for IC50 / inhibition at 100 µM: Staphylococcus aureus; for IC50: read-out: IC50 (µM) MSSA; for inhibition at 100 µM: read-out: MSSA inhibition (100µM)
Description: (§1) MRSA strain ATCC 43300 and MSSA strain S. aureus ATCC 29213 were grown on Tryptic Soy Agar (TSA) plates. Before use, an isolated colony was transferred from the TSA plate into Tryptic Soy Broth (TSB) and incubated 18–24 h in a humidified incubator at 37 °C. To adjust for a standard concentration of bacteria, the turbidity of the culture was measured at 600 nm, and its optical density (OD600) adjusted to be in the range 0.08–0.12 which equates to a concentration of approximately 1 × 10^8 CFU/mL. This suspension was diluted 1:20 in TSB. […] MRSA strain S. aureus ATCC 43300 and MSSA strain S. aureus ATCC 29213 were used for all testing in this study.
(§2) The assay for anti-Staphylococcal activity of AT compounds was prepared in 96-well transparent, U-bottom plates. A series of 2-fold dilutions of AT concentrations was tested in triplicate, with each well containing 10 µL of prepared bacterium and 90 µL of AT mixture in CAMHB. […] Blank wells with only CAMHB, a negative control well with 10 µL of bacterium solution mixed into 90 µL CAMHB, a vehicle control well with bacteria mixed into 1% DMSO in CAMBH, and a positive cell death control with vancomycin (1 µL of stock 2 mg/mL solution in 89 µL CAMHB with 10 µL of bacteria) were included. The plate was incubated for 18–24 h at 37 °C in a humidified incubator. Before measurement, PrestoBlue^TM dye (Invitrogen, Carlsbad, CA, USA) was added (10 µL per well) and incubated for 1 h with aluminum foil covering the plate. A CLARIOstar® (BMG LABTECH, Cary, NC, USA) multi-mode plate reader was used to measure the fluorescence at wavelengths of 560 nm for excitation and 590 nm for emission. Inhibitory concentration (IC50) values were defined as half inhibitory concentration and were computed using GraphPad Prism version 9.1 software.

[2] = tested on: methicillin-resistant S. aureus ATCC 43300 (MRSA); test: Antibacterial assay (broth microdilution, PrestoBlue); format: cell-based, Staphylococcus aureus
Description: as §1, §2

[3] = Cytotoxicity assay (PrestoBlue); format: cell-based, Human; conditions: human, HepG2 cells (ATCC HB-8065), Table 1 and text; 24 h incubation
[4] = tested on: HepG2 (ATCC HB-8065) cells; test: Cytotoxicity assay (PrestoBlue); format: cell-based, Human; conditions: Table 1 and text; 24 h incubation; read-out: CC50 (µM) HepG2
[5] = Cytotoxicity assay (PrestoBlue); conditions: human, HeLa cells (ATCC CCL-2)
Description: Human HeLa epithelial (ATCC CCL-2) and HepG2 liver epithelial (ATCC HB-8065) cell lines were used to determine toxicity of AT compounds for mammalian cells. The cells were grown in a complete culture medium of RPMI 1640 with 10% heat-inactivated fetal bovine serum (FBS) at 37 °C in 5% CO2 (95% room air) in a humidified incubator. Before use, attached cell monolayers, which had reached at least 90% confluency, were detached by trypsinization with trypsin-EDTA (0.25%) and resuspension in fresh complete culture media. For experiments, the stock concentration of 1 × 10^5 cells/mL (to achieve a final 1 × 10^4 cells/well concentration) was achieved by counting the trypsinized cells and adjusting to their final concentration for assays.
HeLa or HepG2 cells were pre-seeded into a 96-well transparent, flat bottom plate by adding a volume of 100 µL stock cell concentration (1 × 10^5 cells/mL) in complete culture media to each well. The plate was incubated overnight at 37 °C in a 5% CO2 (95% room air) humidified incubator. After the incubation and before mixing in the AT compounds, a 100 µL volume of fresh complete culture media was added to the pre-seeded wells. The 2-fold dilutions of AT compounds in triplicates were prepared on a separate 96-well plate. Once the dilution plate was prepared, dilutions were transferred into the pre-seeded plate to achieve the same concentrations of ATs as for the inhibition assay described above. The final inoculated plate was then returned to the 5% CO2 (95% room air) humidified incubator for an additional 24 h of incubation with the diluted ATs. Controls were blank wells containing only media, wells with cells and DMSO in complete culture media, and wells with cells and complete culture media only. Measurement of toxicity was analogous to the inhibition assay except that 20 µL of PrestoBlue^TM was used and the incubation was 3–6 h before reading with the plate-reader. Cytotoxicity concentration (CC50) was defined as the concentration where half of the cells remained viable and was computed using GraphPad Prism.

MRSA = test: Checkerboard assay with antibiotics; format: cell-based, Staphylococcus aureus; conditions: smallest ratio; <0.5 synergy, 0.5–4 no interaction, >4 antagonism
Description: (§3) This preparation for the checkerboard assay was analogous to the antibacterial assay described above in that the standard (5 × 10^5 CFU/mL) concentration of bacteria in media was mixed with 2-fold dilutions of antibacterial agents to verify their inhibition potential. […] Control wells contained 10 µL of bacteria with 90 µL of CAMHB, and the negative control was bacteria in 1% DMSO and CAMHB. Incubation, staining with PrestoBlue^TM, and assessing cell viability are as described for the antibacterial assay above.

MSSA = test: Checkerboard assay with antibiotics; format: cell-based, Staphylococcus aureus; conditions: smallest ratio; <0.5 synergy, 0.5–4 no interaction, >4 antagonism
Description: as §3

[6] = Staphylococcus aureus, Table 1 and text, 18–24 h, CAMHB, read-out: IC50 (µM) MRSA
[7] = Staphylococcus aureus, Table S1, read-out: IC50 MRSA
[8] = Staphylococcus aureus, Table S1
[9] = CC50 (µM) HeLa, Table 1 and text, 24 h incubation

O=C(c1ccccc1O)c1n[nH]nc1-c1ccc(Cl)cc1 [AT106]
Max SI (CC50/IC50) [1]: 12.99
IC50 [1]: 5.44 µM
inhibition at 100 µM [1]: 87.4%
IC50 [2, 6]: 22.4 µM
IC50 [2, 7]: 23.5 µM
inhibition at 100 µM [2, 8]: 64.1%
CC50 at 24 h [3]: > 60 µM
CC50 [4]: 70.7 µM
CC50 at 24 h [5, 9]: > 60 µM
CC50 at 24 h ([5]; CC50 HeLa (µM), Table S1): 16.2 µM
FICi with Daptomycin, MRSA (MRSA): 0.05
FICi with Vancomycin, MRSA (MRSA): 0.52
FICi with Daptomycin, MSSA (MSSA): 0.25
FICi with Vancomycin, MSSA (MSSA): 0.57

O=C(c1ccccc1O)c1n[nH]nc1-c1cccc(C(F)(F)F)c1 [AT116]
Max SI (CC50/IC50) [1]: 16.01
IC50 [1]: 3.18 µM
inhibition at 100 µM [1]: 82%
IC50 [2, 6]: 8.29 µM
IC50 [2, 7]: 35.4 µM
inhibition at 100 µM [2, 8]: 100%
CC50 at 24 h [3]: 50.9 µM
CC50 at 24 h [5, 9]: 56.8 µM
CC50 at 24 h ([5]; CC50 HeLa (µM), Table S1): 11.7 µM
FICi with Daptomycin, MRSA (MRSA): 0.05
FICi with Vancomycin, MRSA (MRSA): 1.03
FICi with Daptomycin, MSSA (MSSA): 0.28

O=C(c1ccccc1O)c1n[nH]nc1-c1ccc(Br)s1 [AT137]
IC50 [1]: 3.09 µM
inhibition at 100 µM [1]: 87.5%
IC50 [2, 6]: < 6 µM
inhibition at 100 µM [2, 8]: 93.8%
IC50 ([2]; Table 1 and text, 18–24 h, CAMHB, read-out: IC50 (µM) MRSA): 3.87 µM
CC50 at 24 h [3]: 39.8 µM
CC50 at 24 h [5, 9]: 2.84 µM
CC50 at 24 h ([5]; CC50 HeLa (µM), Table S1): 12.7 µM
FICi with Daptomycin, MRSA (MRSA): 0.19
FICi with Vancomycin, MRSA (MRSA): 1.13
FICi with Daptomycin, MSSA (MSSA): 0.38
FICi with Vancomycin, MSSA (MSSA): 1.5

From PMC10525585, “Evaluation of the Antibacterial Effect of Aurone-Derived Triazoles on Staphylococcus aureus” (Antibiotics, 2023)
